This note sets out measurements from patent US5612373A, “Certain diacyl hydrazine derivatives” (Zeneca Limited, priority 1993, dated 1997).

A word on the IC50: it is the concentration that gives 50% inhibition.

Molecules are shown by their SMILES.

For test [1], the target named is T1, purified human platelet fibrinogen receptor (GPIIb/IIIa) (Homo sapiens, UniProt P05106+P08514).
T1 construct: Glycoprotein IIb/IIIa is isolated from human platelet lysates; from tissue
Nature of the test: test (b): GPIIb/IIIa ELISA, inhibition of biotinylated fibrinogen binding. The following applies: biotinylated fibrinogen 10 nM, read-out: pIC50 (-log(IC50)), 50% inhibition of biotinylated fibrinogen binding (converted). Here is the method:
(i) Preparation of human platelet lysates.
Platelet rich plasma (prp) is harvested by centrifugation (1000 rpm, 15 minutes) of whole blood anticoagulated with acid citrate dextrose (trisodium citrate 85 mM, citric acid 70 mM, d-glucose 110 mM), 1 part to 6 parts blood. Prostacyclin (PGI2, 1 μM) is added to the prp before centrifugation (2400 rpm, 15 min) and the resulting pellet is resuspended in modified Tyrodes' solution (NaCl 130 mM, KCl 26 mM, NaHCO3 12 mM, NaH2 PO4 0.5 mM, MgCl2 1 mM, CaCl2 20 mM, Glucose 12 mM, HEPES 5 mM) containing bovine serum albumin 3.5 g/L, PGI2 1 μM and hirudin 0.5 U/ml. The platelet suspension is centrifuged (2400 rpm, 15 minutes) and the resultant pellet resuspended in 500 μl of lysis buffer (octyl glucoside 50 mM, HEPES 10 mM, NaCl 150 mM, CaCl2 1 mM, MgCl2 1 mM, PMSF 1 mM, NEM 10 mM, leupeptin 0.1 mM), agitated at 4° C. for 15 minutes then centrifuged at 24000 rpm, 15 minutes. The supernatant is stored at 4° C. and the pellet re-suspended in 500 μl of lysis buffer. […]
96 well microtitre plates are coated with 100 μl purified human platelet fibrinogen receptor (GPIIb/IIIa) diluted in coating buffer (Tris-HCl 20 mM, NaCl 150 mM, CaCl2 1 mM, pH7.4) and left overnight at 4° C. […] Colour is allowed to develop for 10-15 minutes before optical densities are read at 650 nm. […]
Background: In an ELISA, binding on a coated surface is turned into a signal by an enzyme label.

Test [2] deals with T2, ADP stimulated platelet aggregation in human, citrated, platelet-rich plasma (Homo sapiens, UniProt P05106+P08514).
T2 construct: aggregating human, citrated, platelet-rich plasma; endogenous in cells; host or cells: human platelets in citrated platelet-rich plasma
The test can be described thus: test (a): inhibition of ADP stimulated platelet aggregation (Born). The following applies: ADP-induced aggregation, read-out: pA2 (potency of platelet aggregation inhibition) (converted). Type of test: cell-based. The source says: (i) aggregating human, citrated, platelet-rich plasma by addition of adenosine diphosphate (ADP) so as to generate a dose-response curve;
(ii) generating a dose-response curve for ADP stimulated platelet aggregation in the presence of increasing amounts of a test compound (generally in the range 10^-5 M to 10^-10 M); and
(iii) calculating a pA2 value indicating potency of platelet aggregation inhibition for the test compound, averaged over several concentrations, from the calculated 50% response value for ADP aggregation in the presence and absence of the test compound.

Another test concerns platelet aggregation. Nature of the test: test (a) modified: activity after oral dosing to dogs. The format is in vivo. The note with it: dosed orally to dogs at 3 mg/kg. As for the experimental part: Test (a) may be modified so as to assess the effects of a test compound ex vivo on the aggregation of human blood platelets after administration of the test compound to a laboratory animal, such as a rat, rabbit, guinea pig, mouse or dog. For example, groups of fourmale, fasted Alderley Park Wistar rats are orally dosed with a test compound or appropriate vehicle, and at suitable time intervals (1, 3, 5 and 8 hours after dosing) animals are anaesthetised with fluothane and bled by heart puncture. Blood is collected into 3.2% citrate (1 part to 9 parts whole blood) and platelet poor plasma (ppp) prepared by centrifugation (4500×g for 10 minutes). […]
Equal volumes (125 μl ) of rat ppp and human prp are mixed together, ADP added, and the whole incubated (37° C.) and stirred (900 rpm) in a BioData platelet aggregometer. Aggregation is induced with ADP and agonist EC50 values calculated for human prp/rat ppp mixtures from animals dosed with test compound or vehicle. A mean concentration ratio (concentration of ADP required to cause a 50% aggregation response in human prp/rat ppp mixtures from animals dosed with antagonist, divided by the concentration of ADP to cause 50% aggregation in human prp/rat ppp mixtures from animals dosed with vehicle) is calculated at each time point. […]

T1 sequence (P08514 32-887 limits assumed): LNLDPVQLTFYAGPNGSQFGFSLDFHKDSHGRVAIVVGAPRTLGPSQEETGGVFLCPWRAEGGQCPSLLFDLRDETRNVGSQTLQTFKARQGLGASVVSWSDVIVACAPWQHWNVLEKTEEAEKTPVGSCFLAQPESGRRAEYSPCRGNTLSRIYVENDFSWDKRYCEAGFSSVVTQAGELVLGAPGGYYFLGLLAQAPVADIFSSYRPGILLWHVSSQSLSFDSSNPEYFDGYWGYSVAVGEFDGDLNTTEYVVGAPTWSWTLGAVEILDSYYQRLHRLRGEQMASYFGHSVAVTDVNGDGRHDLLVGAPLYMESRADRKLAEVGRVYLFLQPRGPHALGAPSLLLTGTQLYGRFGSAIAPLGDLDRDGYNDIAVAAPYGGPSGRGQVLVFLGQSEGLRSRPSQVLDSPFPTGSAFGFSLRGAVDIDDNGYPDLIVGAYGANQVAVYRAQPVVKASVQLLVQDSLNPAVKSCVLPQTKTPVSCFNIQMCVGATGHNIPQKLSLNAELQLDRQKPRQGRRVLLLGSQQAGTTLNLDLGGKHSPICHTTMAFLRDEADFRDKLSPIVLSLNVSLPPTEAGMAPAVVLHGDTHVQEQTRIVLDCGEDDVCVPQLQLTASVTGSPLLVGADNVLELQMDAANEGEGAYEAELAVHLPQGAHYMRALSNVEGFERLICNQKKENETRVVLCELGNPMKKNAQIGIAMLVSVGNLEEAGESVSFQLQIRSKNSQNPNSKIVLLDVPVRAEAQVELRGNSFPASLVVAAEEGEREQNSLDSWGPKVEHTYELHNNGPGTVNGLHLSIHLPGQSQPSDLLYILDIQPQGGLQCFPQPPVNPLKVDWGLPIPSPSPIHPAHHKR
T1 sequence (P08514 891-1039 limits assumed): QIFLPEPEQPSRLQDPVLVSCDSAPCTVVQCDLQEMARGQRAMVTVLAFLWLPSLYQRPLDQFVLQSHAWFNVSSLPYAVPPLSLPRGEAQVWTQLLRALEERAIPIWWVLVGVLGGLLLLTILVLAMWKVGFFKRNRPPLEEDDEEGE
T1 sequence (P05106 27-788): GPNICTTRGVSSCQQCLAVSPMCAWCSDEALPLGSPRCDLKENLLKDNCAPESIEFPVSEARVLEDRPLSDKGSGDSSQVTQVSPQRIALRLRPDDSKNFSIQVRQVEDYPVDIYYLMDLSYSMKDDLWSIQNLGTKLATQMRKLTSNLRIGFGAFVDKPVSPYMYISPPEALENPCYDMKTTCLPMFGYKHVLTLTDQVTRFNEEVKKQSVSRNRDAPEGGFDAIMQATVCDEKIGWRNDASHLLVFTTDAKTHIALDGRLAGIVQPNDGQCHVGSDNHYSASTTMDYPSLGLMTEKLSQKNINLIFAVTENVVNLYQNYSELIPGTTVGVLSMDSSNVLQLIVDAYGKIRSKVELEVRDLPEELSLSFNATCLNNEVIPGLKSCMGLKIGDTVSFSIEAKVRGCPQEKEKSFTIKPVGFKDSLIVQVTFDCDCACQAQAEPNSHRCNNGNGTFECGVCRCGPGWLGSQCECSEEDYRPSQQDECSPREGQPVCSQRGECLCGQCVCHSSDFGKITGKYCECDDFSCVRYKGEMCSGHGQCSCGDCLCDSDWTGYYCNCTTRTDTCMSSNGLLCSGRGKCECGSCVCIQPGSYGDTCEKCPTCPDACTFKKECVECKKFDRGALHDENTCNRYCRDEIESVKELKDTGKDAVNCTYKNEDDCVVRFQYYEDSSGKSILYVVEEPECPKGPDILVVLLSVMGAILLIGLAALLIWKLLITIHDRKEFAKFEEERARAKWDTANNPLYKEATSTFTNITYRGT
T2 sequence (P08514 32-887 limits assumed): as the sequence (P08514 32-887 limits assumed) above
T2 sequence (P08514 891-1039 limits assumed): as the sequence (P08514 891-1039 limits assumed) above
T2 sequence (P05106 27-788): as the sequence (P05106 27-788) above

Regarding `N=C(N)c1ccc(C(=O)NNC(=O)c2ccc(OCC(=O)O)cc2)cc1` [Example 13, 4-[3-(4-Amidinobenzoyl)carbazoyl]phenoxyacetic acid], the IC50 in test [1] is 15.8 nM. Also, in test [2], the Kb is 7.94 nM.
For the molecule `COC(=O)COc1ccc(C(=O)NNC(=O)c2ccc(C(=N)N)cc2)cc1` [Example 12, Methyl 4-[3-(4-amidinobenzoyl)carbazoyl]phenoxyacetate], the IC50 in test [1] was 1120 nM. Besides, the Kb in test [2] is 200 nM. In the test with platelet aggregation, the “duration of activity after oral dosing” value was “up to 24 hours”.
